According to patent US11161838B2, “Heterocyclic derivatives as PI3K inhibitors” (Incyte Corporation, priority 2018, dated 2021):
Structures can show the parent of a compound that is named as a salt.

Assays:
[1] = target: PI3Kδ (p110δ/p85α) (Homo sapiens (Human), UniProt O00329); assay: PI3Kδ Scintillation Proximity Assay; assay type: biochemical; conditions: 20 μM PIP2, 2 μM ATP, 3.4 nM PI3Kδ, 120 min, room temperature
From the text: Example C. PI3Kδ Scintillation Proximity Assay
(§1) Materials: [γ-^33P]ATP (10 mCi/mL) and Wheat Germ Agglutinin (WGA) YSi SPA Scintillation Beads was purchased from Perkin Elmer (Waltham, Mass.). Lipid kinase substrate, D-myo-Phosphatidylinositol 4,5-bisphosphate (PtdIns(4,5)P2)D (+)-sn-1,2-di-O-octanoylglyceryl, 3-O-phospho linked (PIP2), CAS 204858-53-7, was purchased from Echelon Biosciences (Salt Lake City, Utah). PI3Kδ (p110δ/p85α) Recombinant Human Protein was purchased from Eurofins (St Charles, Mo.). ATP, MgCl2, DTT, EDTA, MOPS and CHAPS were purchased from Sigma Aldrich (St. Louis, Mo.).
(§2) The kinase reaction was conducted in polystyrene 384-well Greiner Bio-one white plate from Thermo Fisher Scientific in a final volume of 25 μL. Inhibitors were first diluted serially in DMSO and added to the plate wells before the addition of other reaction components. The final concentration of DMSO in the assay was 2%. The PI3K6 assay was carried out at room temperature in 20 mM MOPS, pH 6.7, 10 mM MgCl2, 5 mM DTT and CHAPS 0.03%. Reactions were initiated by the addition of ATP, the final reaction mixture consisted of 20 μM PIP2, 2 μM ATP, 0.5 μCi [γ-^33P] ATP, 3.4 nM PI3K6. Reactions were incubated for 120 min and terminated by the addition of 40 μL SPA beads suspended in quench buffer: 163 mM potassium phosphate pH 7.8, 20% glycerol, 25 mM EDTA. The final concentration of SPA beads is 1.0 mg/mL. After the plate sealing, plates were shaken overnight at room temperature and centrifuged at 1500 rpm for 10 min, the radioactivity of the product was determined by scintillation counting on Topcount (PerkinElmer). IC50 determination was performed by fitting the curve of percent of the solvent control activity versus the log of the inhibitor concentration using the GraphPad Prism 6.0 software.

[2] = system: Phosphorylated Ribosomal Protein S6 (RPS6) in THP-1 cells; assay: THP-1 RPS6 ELISA Assay; assay type: cell-based; conditions: Homo sapiens; serum starved THP-1 cells, 2 hours with compound, then 10 nM MCP-1 for 15 minutes; Phospho-RPS6 ELISA; read-out: PI3Kγ_THP1_RPS6_ELISA IC50
Procedure: Example A. THP-1 RPS6 ELISA Assay
To measure the Phosphorylated Ribosomal Protein S6 (RPS6) in cell lysates, THP-1 cells (Human Acute Monocytic Leukemia) are purchased from ATCC (Manassas, Va.) and maintained in RPMI with 10% FBS (Gibco/Life Technologies, Carlsbad, Calif.). For the assay, THP-1 cells are serum starved overnight in RPMI, then plated in RPMI (2×10^5 cells/well in 90 μL) into 96-well flat-bottom tissue culture treated plates (Corning, Corning, N.Y.), in the presence or absence of a concentration range of test compounds. Covered plates are incubated for 2 hours at 37° C., 5% CO2 then treated with or without 10 nM MCP-1 (MYBioSource, San Diego, Calif.) for 15 minutes at 37° C., 5% CO2. Plates are centrifuged at 1600 RPM and supernatants are removed. Cells are lysed in Lysis Buffer (Cell Signaling, Danvers, Mass.) with Protease Inhibitor (Calbiochem/EMD, Germany), PMSF (Sigma, St Louis Mo.), HALTS (Thermo Fisher, Rockford, Ill.) for 30 min on wet ice. Cell lysates are frozen at −80 OC before testing. The lysates are tested in the Human/Mouse/Rat Phospho-RPS6 ELISA (R&D Systems, Inc. Minn, Minn.). The plate is measured using a microplate reader (SpectraMax M5—Molecular Devices, LLC Sunnyvale, Calif.) set to 450 nm with a wavelength correction of 540. IC50 determination is performed by fitting the curve of inhibitor percent inhibition versus the log of the inhibitor concentration using the GraphPad Prism 5.0 software.

[3] = target: PI3Kγ (p110γ) (Homo sapiens (Human), UniProt P48736); assay: PI3K-γ Scintillation Proximity Assay; assay type: biochemical; conditions: 20 μM PIP2, 2 μM ATP, 13 nM PI3Kγ, 120 min, room temperature
From the text: Example B. PI3K-γ Scintillation Proximity Assay
as §1, with “[γ-^33P]ATP” for “Materials: [γ-^33P]ATP”, “PI3Kγ (p110γ)” for “PI3Kδ (p110δ/p85α)”, “Life technology (Grand Island, N.Y.).” for “Eurofins (St Charles, Mo.).”
as §2, with “PI3Kγ” for “PI3K6”, “13” for “3.4”, “PI3Kγ.” for “PI3K6.”, “(Perkin-Elmer).” for “(PerkinElmer).”

Chain of PI3Kγ (p110γ) (P48736 whole entry): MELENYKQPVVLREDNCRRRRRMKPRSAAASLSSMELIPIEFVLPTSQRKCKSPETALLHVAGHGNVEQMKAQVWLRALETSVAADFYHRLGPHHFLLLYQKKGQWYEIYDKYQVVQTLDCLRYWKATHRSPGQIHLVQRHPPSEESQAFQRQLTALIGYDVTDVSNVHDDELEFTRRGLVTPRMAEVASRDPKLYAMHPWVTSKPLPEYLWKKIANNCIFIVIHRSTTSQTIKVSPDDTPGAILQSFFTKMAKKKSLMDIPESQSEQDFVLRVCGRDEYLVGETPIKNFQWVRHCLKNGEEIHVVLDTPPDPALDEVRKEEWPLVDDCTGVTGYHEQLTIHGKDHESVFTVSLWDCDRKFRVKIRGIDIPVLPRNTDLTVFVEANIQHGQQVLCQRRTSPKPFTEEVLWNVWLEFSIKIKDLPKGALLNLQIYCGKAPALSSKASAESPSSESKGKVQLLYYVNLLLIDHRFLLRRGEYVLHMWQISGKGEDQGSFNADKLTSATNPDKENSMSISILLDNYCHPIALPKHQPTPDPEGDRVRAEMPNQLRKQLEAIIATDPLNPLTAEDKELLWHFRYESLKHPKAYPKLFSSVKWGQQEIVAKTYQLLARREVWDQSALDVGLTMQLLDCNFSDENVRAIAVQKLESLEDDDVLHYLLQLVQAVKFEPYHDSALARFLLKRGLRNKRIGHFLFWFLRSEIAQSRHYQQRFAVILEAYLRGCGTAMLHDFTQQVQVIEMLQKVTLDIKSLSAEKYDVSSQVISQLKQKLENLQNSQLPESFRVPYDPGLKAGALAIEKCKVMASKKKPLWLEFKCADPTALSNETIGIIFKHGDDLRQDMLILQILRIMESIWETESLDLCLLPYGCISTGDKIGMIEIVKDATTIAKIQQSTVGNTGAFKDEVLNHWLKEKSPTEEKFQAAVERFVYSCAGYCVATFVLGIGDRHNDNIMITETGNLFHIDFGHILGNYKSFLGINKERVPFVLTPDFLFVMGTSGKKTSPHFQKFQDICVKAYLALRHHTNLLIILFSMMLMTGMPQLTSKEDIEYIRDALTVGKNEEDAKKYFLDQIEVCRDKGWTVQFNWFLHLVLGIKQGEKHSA
Chain of PI3Kδ (p110δ/p85α) (O00329 whole entry): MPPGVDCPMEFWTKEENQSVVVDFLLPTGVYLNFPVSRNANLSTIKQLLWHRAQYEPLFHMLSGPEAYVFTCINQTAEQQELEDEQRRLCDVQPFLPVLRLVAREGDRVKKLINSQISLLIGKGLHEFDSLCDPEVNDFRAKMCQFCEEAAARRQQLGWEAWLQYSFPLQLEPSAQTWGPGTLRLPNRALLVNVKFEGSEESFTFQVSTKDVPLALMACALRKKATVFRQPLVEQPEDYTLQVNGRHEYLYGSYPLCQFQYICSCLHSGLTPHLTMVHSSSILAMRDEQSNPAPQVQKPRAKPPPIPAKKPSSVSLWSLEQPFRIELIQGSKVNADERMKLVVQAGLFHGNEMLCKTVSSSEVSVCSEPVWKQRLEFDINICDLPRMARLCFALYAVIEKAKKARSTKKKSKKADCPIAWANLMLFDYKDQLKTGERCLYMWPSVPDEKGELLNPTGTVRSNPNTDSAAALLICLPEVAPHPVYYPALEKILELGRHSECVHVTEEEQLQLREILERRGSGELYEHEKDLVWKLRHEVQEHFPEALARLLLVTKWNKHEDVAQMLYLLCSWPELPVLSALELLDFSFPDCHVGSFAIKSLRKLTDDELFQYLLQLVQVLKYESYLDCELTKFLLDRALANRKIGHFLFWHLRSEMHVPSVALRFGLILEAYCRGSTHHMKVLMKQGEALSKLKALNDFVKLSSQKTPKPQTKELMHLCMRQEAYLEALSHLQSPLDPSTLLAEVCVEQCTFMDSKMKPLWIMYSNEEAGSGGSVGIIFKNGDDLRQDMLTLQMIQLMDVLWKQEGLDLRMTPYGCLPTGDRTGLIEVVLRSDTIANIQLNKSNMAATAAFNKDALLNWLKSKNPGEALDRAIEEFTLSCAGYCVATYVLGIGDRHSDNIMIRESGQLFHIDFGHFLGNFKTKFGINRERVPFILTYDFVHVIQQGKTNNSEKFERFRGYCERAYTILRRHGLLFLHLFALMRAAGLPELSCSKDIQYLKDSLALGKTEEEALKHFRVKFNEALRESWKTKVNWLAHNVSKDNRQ
Chain of PI3Kδ (p110δ/p85α) (P27986 whole entry partner): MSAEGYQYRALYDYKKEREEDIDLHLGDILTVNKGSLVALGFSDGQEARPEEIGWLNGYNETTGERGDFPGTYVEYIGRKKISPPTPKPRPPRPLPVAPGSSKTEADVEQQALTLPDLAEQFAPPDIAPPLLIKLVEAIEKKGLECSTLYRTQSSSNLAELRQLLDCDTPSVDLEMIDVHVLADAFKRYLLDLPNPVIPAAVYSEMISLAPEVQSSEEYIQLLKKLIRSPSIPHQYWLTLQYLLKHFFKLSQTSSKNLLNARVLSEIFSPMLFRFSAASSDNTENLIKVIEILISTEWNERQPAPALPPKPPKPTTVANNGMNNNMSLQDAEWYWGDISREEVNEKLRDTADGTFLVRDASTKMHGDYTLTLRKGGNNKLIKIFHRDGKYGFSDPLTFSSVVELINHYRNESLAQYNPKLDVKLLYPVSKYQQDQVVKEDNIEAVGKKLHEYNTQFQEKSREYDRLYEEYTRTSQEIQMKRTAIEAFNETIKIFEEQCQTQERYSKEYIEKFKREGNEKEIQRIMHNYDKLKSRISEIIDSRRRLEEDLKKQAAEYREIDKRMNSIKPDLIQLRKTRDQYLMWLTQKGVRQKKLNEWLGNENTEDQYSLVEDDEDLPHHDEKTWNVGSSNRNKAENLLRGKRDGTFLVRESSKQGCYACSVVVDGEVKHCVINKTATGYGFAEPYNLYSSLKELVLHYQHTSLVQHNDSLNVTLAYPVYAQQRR

| IC50 [1] | IC50 [2] | IC50 [3] | SMILES |
| --- | --- | --- | --- |
| 500 to 2000 nM | ≥ 1000 nM | ≤ 100 nM | C[C@@H](C1CC1)N1Cc2cc(-c3cnc(N)c(-n4cncn4)n3)cc(S(C)(=O)=O)c2C1=O [Example 12, (S)-5-(5-Amino-6-(1H-1,2,4-triazol-1-yl)pyrazin-2-yl)-2-(1-cyclopropylethyl)-7-(methylsulfonyl)isoindolin-1-one, trifluoroacetate salt] |
| ≥ 2000 nM | – | ≤ 100 nM | C[C@@H](C1CC1)N1Cc2cc(-c3cnc(N)c(C4CN(C(=O)C5(C(F)(F)F)CC5)C4)n3)ccc2C1=O [Example 13, (S)-5-(5-Amino-6-(1-(1-(trifluoromethyl)cyclopropane-1-carbonyl)azetidin-3-yl)pyrazin-2-yl)-2-(1-cyclopropylethyl)isoindolin-1-one, 0.7× trifluoroacetate salt] |
| ≥ 2000 nM | – | 500 to 2000 nM | CC(C1CC1)n1nc2ccc(-c3cnc(N)cn3)cc2n1 (centres unmarked) [Example 6, 5-(2-(1-Cyclopropylethyl)-2H-benzo[d][1,2,3]triazol-5-yl)pyrazin-2-amine, trifluoroacetate] |
| 100 to 500 nM | 500 to 1000 nM | ≤ 100 nM | Cc1ncc(-c2nc(-c3cc4c(c(S(C)(=O)=O)c3)C(=O)N([C@@H](C)C3CC3)C4)cnc2N)s1 [Example 9, (S)-5-(5-Amino-6-(2-methylthiazol-5-yl)pyrazin-2-yl)-2-(1-cyclopropylethyl)-7-(methylsulfonyl)isoindolin-1-one, trifluoroacetate salt] |
| 500 to 2000 nM | 500 to 1000 nM | ≤ 100 nM | C[C@@H](C1CC1)N1Cc2cc(-c3cnc(N)c(-c4cnn(C)c4)n3)cc(S(C)(=O)=O)c2C1=O [Example 8, (S)-5-(5-Amino-6-(1-methyl-1H-pyrazol-4-yl)pyrazin-2-yl)-2-(1-cyclopropylethyl)-7-(methylsulfonyl)isoindolin-1-one, trifluoroacetate salt] |
| 500 to 2000 nM | ≥ 1000 nM | ≤ 100 nM | C[C@@H](C1CC1)N1Cc2cc(-c3cnc(N)c(-c4ccnn4C)n3)cc(S(C)(=O)=O)c2C1=O [Example 7, (S)-5-(5-Amino-6-(1-methyl-1H-pyrazol-5-yl)pyrazin-2-yl)-2-(1-cyclopropylethyl)-7-(methylsulfonyl)isoindolin-1-one, trifluoroacetate salt] |
| 500 to 2000 nM | – | ≤ 100 nM | C[C@@H](C1CC1)N1Cc2cc(-c3cnc(N)c(-c4cn[nH]c4)n3)cc(S(C)(=O)=O)c2C1=O [Example 11, (S)-5-(5-Amino-6-(1H-pyrazol-4-yl)pyrazin-2-yl)-2-(1-cyclopropylethyl)-7-(methylsulfonyl)isoindolin-1-one, trifluoroacetate salt] |
| 500 to 2000 nM | ≥ 1000 nM | ≤ 100 nM | Cc1n[nH]cc1-c1nc(-c2cc3c(c(S(C)(=O)=O)c2)C(=O)N([C@@H](C)C2CC2)C3)cnc1N [Example 10, (S)-5-(5-Amino-6-(3-methyl-1H-pyrazol-4-yl)pyrazin-2-yl)-2-(1-cyclopropylethyl)-7-(methylsulfonyl)isoindolin-1-one, trifluoroacetate salt] |

More lines, now with the values behind:

| SMILES | IC50 [1] | IC50 [2] | IC50 [3] |
| --- | --- | --- | --- |
| CC(C)NC(=O)c1nc(-c2ccc3c(c2)CN([C@@H](C)C2CC2)C3=O)cnc1N [Example 2, (S)-3-Amino-6-(2-(1-cyclopropylethyl)-1-oxoisoindolin-5-yl)-N-isopropylpyrazine-2-carboxamide trifluoroacetate salt] | 500 to 2000 nM | ≥ 1000 nM | ≤ 100 nM |
| CC(C)NC(=O)c1nc(-c2cc3c(c(S(C)(=O)=O)c2)C(=O)N([C@@H](C)C2CC2)C3)cnc1N [Example 4, (S)-3-Amino-6-(2-(1-cyclopropylethyl)-7-(methylsulfonyl)-1-oxoisoindolin-5-yl)-N-isopropylpyrazine-2-carboxamide trifluoroacetate salt] | 500 to 2000 nM | ≥ 1000 nM | ≤ 100 nM |
| C[C@@H](C1CC1)N1Cc2cc(-c3cnc(N)c(C(=O)NC4CCOCC4)n3)ccc2C1=O [Example 1, (S)-3-Amino-6-(2-(1-cyclopropylethyl)-1-oxoisoindolin-5-yl)-N-(tetrahydro-2H-pyran-4-yl)pyrazine-2-carboxamide trifluoroacetate salt] | 500 to 2000 nM | ≥ 1000 nM | ≤ 100 nM |
| C[C@@H](C1CC1)N1Cc2cc(-c3cnc(N)c(C(=O)NC4CCOCC4)n3)cc(S(C)(=O)=O)c2C1=O [Example 3, (S)-3-Amino-6-(2-(1-cyclopropylethyl)-7-(methylsulfonyl)-1-oxoisoindolin-5-yl)-N-(tetrahydro-2H-pyran-4-yl)pyrazine-2-carboxamide trifluoroacetate salt] | 100 to 500 nM | 100 to 500 nM | ≤ 100 nM |
| Cc1cc(-c2cnc(N)cn2)cc2cn(C(C)C3CC3)nc12 (centres unmarked) [Example 5, 5-(2-(1-Cyclopropylethyl)-7-methyl-2H-indazol-5-yl)pyrazin-2-amine, trifluoroacetate] | ≥ 2000 nM | – | 100 to 500 nM |
